According to patent publication US6160004A, “C-10 carbon-substituted artemisinin-like trioxane compounds having antimalarial, antiproliferative and antitumor activities” (priority 1998, dated 2000):

Columns and labels:
CCRF-CEM = assay: cells; format: cell-based; conditions: Homo sapiens, 48 h
HL-60(TB) = assay: cells; format: cell-based; conditions: Homo sapiens
A549/ATCC = assay: NCI 60 cell line panel screening assay (SRB), A549/ATCC; format: cell-based; conditions: Homo sapiens, non-small cell lung cancer, 48 h, read-out: Log10 GI50 (converted)
EKVX = assay: NCI 60 cell line panel screening assay (SRB), EKVX; format: cell-based; conditions: Homo sapiens, non-small cell lung cancer, 48 h, read-out: Log10 GI50 (converted)
HOP-62 = assay: cells; format: cell-based; conditions: Homo sapiens, HOP-62, non-small cell lung cancer, 48 h
NCI-H226 = assay: cells; format: cell-based; conditions: Homo sapiens, NCI-H226, 48 h, read-out: Log10 GI50 (converted)
NCI-H23 = assay: cells; format: cell-based; conditions: Homo sapiens; NCI-H23, non-small cell lung cancer, 48 h; read-out: Log10 GI50 (converted)
NCI-H460 = assay: cells; format: cell-based; conditions: Homo sapiens; NCI-H460, non-small cell lung cancer, 48 h; read-out: Log10 GI50 (converted)
NCI-H522 = assay: cells; format: cell-based; conditions: Homo sapiens
SF-295 = assay: cells; format: cell-based; conditions: Homo sapiens, SF-295, CNS cancer, 48 h
SF-539 = assay: cells; format: cell-based; conditions: Homo sapiens, SF-539, CNS cancer, 48 h
SNB-19 = assay: cells; format: cell-based; conditions: Homo sapiens, SNB-19, CNS cancer, 48 h
LOX IMVI = assay: cells; format: cell-based; conditions: Homo sapiens, melanoma, 48 h
MALME-3M = assay: cells; format: cell-based; conditions: Homo sapiens, 48 h
SK-MEL-2 = assay: cells; format: cell-based; conditions: Homo sapiens, SK-MEL-2, melanoma, 48 h
UACC-257 = assay: cells; format: cell-based; conditions: Homo sapiens, UACC-257, 48 h
OVCAR-3 = assay: cells; format: cell-based; conditions: Homo sapiens
OVCAR-4 = assay: cells; format: cell-based; conditions: Homo sapiens
OVCAR-8 = assay: cells; format: cell-based; conditions: Homo sapiens
786-0 = assay: cells; format: cell-based; conditions: Homo sapiens, 786-0, renal cancer, 48 h
A498 = assay: cells; format: cell-based; conditions: Homo sapiens, A498, renal cancer, 48 h
ACHN = assay: NCI 60 cell line panel screening assay (SRB), ACHN; format: cell-based; conditions: Homo sapiens, renal cancer, 48 h
RXF 393 = assay: cells; format: cell-based; conditions: Homo sapiens, RXF 393, renal cancer, 48 h
UO-31 = assay: NCI 60 cell line panel screening assay (SRB), UO-31; format: cell-based; conditions: Homo sapiens, UO-31, renal cancer, 48 h
MCF7/ADR-RES = assay: cells; format: cell-based; conditions: Homo sapiens, MCF7/ADR-RES, breast cancer, 48 h
MDA-MB231/ATCC = assay: cells; format: cell-based; conditions: Homo sapiens, MDA-MB-231, breast cancer, 48 h
HS 578T = assay: cells; format: cell-based; conditions: Homo sapiens, HS 578T, breast cancer, 48 h
MDA-MB435 = assay: NCI 60 cell line panel screening assay (SRB), MDA-MB435; format: cell-based; conditions: Homo sapiens
[1] = test system: chloroquine-sensitive P. falciparum (NF54); assay: In vitro antimalarial activity ([3H]hypoxanthine incorporation); format: cell-based
60 cell line panel = assay: NCI 60 cell line panel, whole panel
[2] = read-out: Log10 GI50 (converted)
[3] = read-out: Log10 LC50 (converted)

SMILES: CC1CCC2C(C)C(CC(=O)c3cccc(C(=O)CC4OC5OC6(C)CCC7C(C)CCC(C4C)C57OO6)c3)OC3OC4(C)CCC1C32OO4 (stereo not shown) [Dimer 39]
- GI50 (CCRF-CEM; [2]): > 100 µM
- CC50 (CCRF-CEM; [3]): > 100 µM
- IC (TGI) (CCRF-CEM; leukemia, read-out: Log10 TGI): > 100 µM
- CC50 (HL-60(TB); HL-60, 48 h, read-out: Log10 LC50 (converted)): > 100 µM
- GI50 (HL-60(TB); HL-60(TB), leukemia, 48 h, read-out: Log10 GI50 (converted)): > 100 µM
- IC (TGI) (HL-60(TB); HL-60(TB), leukemia, 48 h, read-out: Log10 TGI): > 100 µM
- GI50 (A549/ATCC): > 100 µM
- GI50 (EKVX): > 100 µM
- GI50 (HOP-62; [2]): > 100 µM
- LC50 (HOP-62; [3]): > 100 µM
- GI50 (NCI-H226): 29.5 µM
- GI50 (NCI-H23): > 100 µM
- GI50 (NCI-H460): > 100 µM
- CC50 (NCI-H522; NCI-H522, 48 h, read-out: Log10 LC50 (converted)): > 100 µM
- GI50 (NCI-H522; NCI-H522, non-small cell lung cancer, 48 h, read-out: Log10 GI50 (converted)): > 100 µM
- GI50 (SF-295; [2]): > 100 µM
- CC50 (SF-295; [3]): > 100 µM
- GI50 (SF-539; [2]): > 100 µM
- CC50 (SF-539; [3]): > 100 µM
- GI50 (SNB-19; [2]): > 100 µM
- CC50 (SNB-19; [3]): > 100 µM
- IC (TGI) (SNB-19; read-out: Log10 TGI): > 100 µM
- GI50 (LOX IMVI; [2]): > 100 µM
- CC50 (LOX IMVI; [3]): > 100 µM
- IC (TGI) (LOX IMVI; read-out: Log10 TGI (converted)): > 100 µM
- IC (TGI) (MALME-3M; Malme-3M, read-out: Log10 TGI): > 100 µM
- GI50 (MALME-3M; MALME-3M, melanoma, read-out: Log10 GI50 (converted)): > 100 µM
- LC50 (50% lethal concentration) (MALME-3M; MALME-3M, melanoma, read-out: Log10 LC50 (converted)): > 100 µM
- GI50 (SK-MEL-2; [2]): > 100 µM
- CC50 (SK-MEL-2; [3]): > 100 µM
- IC (TGI) (SK-MEL-2; read-out: Log10 TGI): > 100 µM
- IC (TGI) (UACC-257; read-out: Log10 TGI): > 100 µM
- GI50 (UACC-257; [2]): > 100 µM
- CC50 (UACC-257; [3]): > 100 µM
- IC (TGI) (OVCAR-3; OVCAR-3, 48 h, read-out: Log10 TGI): > 100 µM
- GI50 (OVCAR-3; OVCAR-3, ovarian cancer, 48 h, read-out: Log10 GI50 (converted)): > 100 µM
- CC50 (OVCAR-3; OVCAR-3, ovarian cancer, 48 h, read-out: Log10 LC50 (converted)): > 100 µM
- IC (TGI) (OVCAR-4; OVCAR-4, 48 h, read-out: Log10 TGI): > 100 µM
- GI50 (OVCAR-4; OVCAR-4, ovarian cancer, 48 h, read-out: Log10 GI50 (converted)): > 100 µM
- CC50 (OVCAR-4; OVCAR-4, ovarian cancer, 48 h, read-out: Log10 LC50 (converted)): > 100 µM
- IC (TGI) (OVCAR-8; OVCAR-8, 48 h, read-out: Log10 TGI): > 100 µM
- GI50 (OVCAR-8; OVCAR-8, ovarian cancer, 48 h, read-out: Log10 GI50 (converted)): > 100 µM
- CC50 (OVCAR-8; OVCAR-8, ovarian cancer, 48 h, read-out: Log10 LC50 (converted)): > 100 µM
- GI50 (786-0; [2]): > 100 µM
- CC50 (786-0; [3]): > 100 µM
- IC (TGI) (786-0; read-out: Log10 TGI): > 100 µM
- CC50 (A498; [3]): > 100 µM
- IC (TGI) (A498; read-out: Log10 TGI): > 100 µM
- GI50 (ACHN; [2]): > 100 µM
- IC (TGI) (ACHN; read-out: Log10 TGI): > 100 µM
- GI50 (RXF 393; [2]): > 100 µM
- CC50 (RXF 393; [3]): > 100 µM
- IC (TGI) (RXF 393; read-out: Log10 TGI): > 100 µM
- GI50 (UO-31; [2]): > 100 µM
- CC50 (UO-31; [3]): > 100 µM
- IC (TGI) (UO-31; read-out: Log10 TGI): > 100 µM
- GI50 (MCF7/ADR-RES; [2]): > 100 µM
- CC50 (MCF7/ADR-RES; [3]): > 100 µM
- GI50 (MDA-MB231/ATCC; [2]): > 100 µM
- CC50 (MDA-MB231/ATCC; [3]): > 100 µM
- GI50 (HS 578T; [2]): > 100 µM
- CC50 (HS 578T; [3]): > 100 µM
- CC50 (MDA-MB435; MDA-MB-435, 48 h, read-out: Log10 LC50 (converted)): > 100 µM
- GI50 (MDA-MB435; MDA-MB-435, printed MDA-MBA35, breast cancer, 48 h, read-out: Log10 GI50 (converted)): > 100 µM
- in vitro antimalarial potency relative to artemisinin ([1]; P. falciparum NF54): more potent than artemisinin
- IC50 ([1]; Plasmodium falciparum, chloroquine-sensitive P. falciparum NF54, in vitro): 0.0019 µM
- IC (TGI) (60 cell line panel; 60 cell, read-out: MG MID of Log10 TGI): 100 µM
- CC50 (60 cell line panel; Homo sapiens, 60 cell, read-out: MG MID of Log10 LC50 (converted)): 100 µM
- Delta of Log10 TGI (60 cell line panel; panel): 0.00
- Range of Log10 TGI (60 cell line panel; panel): 0.00
